The values below come from PubChem BioAssay AID330 (DTP/NCI, 2004).

For this assay, the system named is P388 leukemia ip, CD2F1 mice, survival T/C. Put plainly: NCI In Vivo Anticancer Drug Screen. Data for tumor model P388 Leukemia (intraperitoneal) in CD2F1 (CDF1) mice. The conditions noted are these: endpoint: median survival time, higher = longer survival. A digest of the protocol:
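Mice carrying the transplanted tumor received test compound or vehicle. Survival was recorded in each group, and the value is the treated-group measurement divided by that of the vehicle-treated control group.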

The mark [1] stands for this setting: dose: 50.0 mg/kg/injection, schedule: Q01DX009 (ip), vehicle: saline with Tween-80.
The mark [2] stands for this setting: dose: 100.0 mg/kg/injection, schedule: Q01DX009 (ip), vehicle: saline with Tween-80.
Setting [3] is: dose: 200.0 mg/kg/injection, schedule: Q01DX009 (ip), vehicle: saline with Tween-80.
[4] abbreviates: dose: 50.0 mg/kg/injection, schedule: Q01DX009 (ip), vehicle: saline.
[5] abbreviates: dose: 100.0 mg/kg/injection, schedule: Q01DX009 (ip), vehicle: saline.
Setting [6] is: dose: 200.0 mg/kg/injection, schedule: Q01DX009 (ip), vehicle: saline.
Where [7] appears, read: dose: 120.0 mg/kg/injection, schedule: Q01DX005 (ip), vehicle: Klucel (hydroxypropylcellulose) (HPC).
The mark [8] stands for this setting: dose: 240.0 mg/kg/injection, schedule: Q01DX005 (ip), vehicle: Klucel (hydroxypropylcellulose) (HPC).

Several values for one entry are separate records, joined by “and”; a condition that tells them apart may be missing. Identical values can stand only once. Toxic doses and inconclusive results are not listed.

In the case of `CCN(CC)CCCC(=O)O`, the T/C (dose: 50.0 mg/kg/injection, schedule: Q01DX005 (ip), vehicle: saline) is 100 % of control; the T/C (dose: 100.0 mg/kg/injection, schedule: Q01DX005 (ip), vehicle: saline) was 100 % of control; the T/C (dose: 200.0 mg/kg/injection, schedule: Q01DX005 (ip), vehicle: saline) is 100 % of control.
In the case of `O=C1c2ccccc2C(O)(C#Cc2ccccc2)c2c1oc1ccc3ccccc3c21` (configuration not stated), the T/C runs as follows: under setting [1], 100 % of control; under setting [2], 92 % of control; under setting [3], 87 % of control.
For `CCCCCCCCCCCCOc1ccccc1` the same measures were 100 % of control, 104 % of control and 100 % of control.
Consider `COc1cc2c(c3oc(=O)cc(CCC(=O)O)c13)C1CC(=O)OC1O2` (configuration not stated), for which the T/C is 101 % of control (dose: 8.75 mg/kg/injection, schedule: Q01DX005 (ip), vehicle: Klucel (hydroxypropylcellulose) (HPC)); 100 % of control (dose: 17.5 mg/kg/injection, schedule: Q01DX005 (ip), vehicle: Klucel (hydroxypropylcellulose) (HPC)); 97 % of control (dose: 35.0 mg/kg/injection, schedule: Q01DX005 (ip), vehicle: Klucel (hydroxypropylcellulose) (HPC)).
With `O=C1CSc2ccccc2N1`, the T/C was 102 % of control (dose: 6.25 mg/kg/injection, schedule: Q01DX009 (ip), vehicle: suspension in saline); 105 % of control (dose: 12.5 mg/kg/injection, schedule: Q01DX009 (ip), vehicle: Klucel (hydroxypropylcellulose) (HPC)); 104 % of control (dose: 12.5 mg/kg/injection, schedule: Q01DX009 (ip), vehicle: suspension in saline); 97 % of control (dose: 25.0 mg/kg/injection, schedule: Q01DX009 (ip), vehicle: Klucel (hydroxypropylcellulose) (HPC)); 99 % of control (dose: 25.0 mg/kg/injection, schedule: Q01DX009 (ip), vehicle: suspension in saline); 88 % of control and 95 % of control (dose: 50.0 mg/kg/injection, schedule: Q01DX009 (ip), vehicle: Klucel (hydroxypropylcellulose) (HPC)). Further, the T/C is, setting by setting: (dose: 50.0 mg/kg/injection, schedule: Q01DX009 (ip), vehicle: suspension in saline) 104 % of control; (dose: 200.0 mg/kg/injection, schedule: Q01DX009 (ip), vehicle: Klucel (hydroxypropylcellulose) (HPC)) 100 % of control; (dose: 400.0 mg/kg/injection, schedule: Q01DX009 (ip), vehicle: Klucel (hydroxypropylcellulose) (HPC)) 99 % of control.
For `O=NN(CCSCCO)C(=O)NC1CCCCC1`, the T/C runs as follows: (dose: 6.25 mg/kg/injection, schedule: Q01DX009 (ip), vehicle: water) 101 % of control; (dose: 12.5 mg/kg/injection, schedule: Q01DX009 (ip), vehicle: water) 100 % of control; (dose: 25.0 mg/kg/injection, schedule: Q01DX009 (ip), vehicle: water) 102 % of control; (dose: 50.0 mg/kg/injection, schedule: Q01DX009 (ip), vehicle: water) 109 % of control; (dose: 100.0 mg/kg/injection, schedule: Q01DX009 (ip), vehicle: water) 110 % of control; (dose: 200.0 mg/kg/injection, schedule: Q01DX009 (ip), vehicle: water) 107 % of control.
As to `CN=C(N)NN`, the T/C is 101 % of control (dose: 25.0 mg/kg/injection, schedule: Q01DX009 (ip), vehicle: saline); 97 % of control under setting [4]; 93 % of control under setting [5]; 97 % of control under setting [6].
Turning to `CCOC(=O)Cn1ccnc1[N+](=O)[O-]`, the T/C is, setting by setting: (dose: 12.5 mg/kg/injection, schedule: Q01DX009 (ip), vehicle: distilled water + Tween-80) 102 % of control; (dose: 25.0 mg/kg/injection, schedule: Q01DX009 (ip), vehicle: distilled water + Tween-80) 97 % of control; (dose: 50.0 mg/kg/injection, schedule: Q01DX009 (ip), vehicle: distilled water + Tween-80) 100 % of control; (dose: 100.0 mg/kg/injection, schedule: Q01DX009 (ip), vehicle: distilled water + Tween-80) 102 % of control; (dose: 200.0 mg/kg/injection, schedule: Q01DX009 (ip), vehicle: distilled water + Tween-80) 109 % of control.
As for `CCC1(O)CC(OC2CC(N(C)C)C(OC3CC4OC5CC(=O)C(C)OC5OC4C(C)O3)C(C)O2)c2c(cc3c(c2O)C(=O)c2c(O)ccc(O)c2C3=O)C1C(=O)OC` (configuration not stated), the T/C reads like this: (dose: 0.5 mg/kg/injection, schedule: Q04DX003 (ip), vehicle: other) 123 % of control; (dose: 0.5 mg/kg/injection, schedule: Q04DX003 (ip), vehicle: saline with Tween-80) 112 % of control and 110 % of control and 118 % of control; (dose: 0.5 mg/kg/injection, schedule: Q04DX003 (ip), vehicle: water) 113 % of control; (dose: 0.64 mg/kg/injection, schedule: Q04DX003 (ip), vehicle: water) 109 % of control; (dose: 1.0 mg/kg/injection, schedule: Q04DX003 (ip), vehicle: water) 119 % of control; (dose: 1.08 mg/kg/injection, schedule: Q04DX003 (ip), vehicle: water) 115 % of control. The T/C reads like this: (dose: 1.8 mg/kg/injection, schedule: Q04DX003 (ip), vehicle: water) 118 % of control; (dose: 1.94 mg/kg/injection, schedule: Q04DX003 (ip), vehicle: water) 118 % of control; (dose: 2.0 mg/kg/injection, schedule: Q04DX003 (ip), vehicle: saline with Tween-80) 170 % of control; (dose: 3.24 mg/kg/injection, schedule: Q04DX003 (ip), vehicle: water) 124 % of control; (dose: 5.0 mg/kg/injection, schedule: Q04DX003 (ip), vehicle: water) 114 % of control.
Regarding `CC1(C)C(=O)C(/C=C\c2ccccc2[N+](=O)[O-])Cc2ccccc21` (configuration not stated), the T/C was 100 % of control (dose: 100.0 mg/kg/injection, schedule: Q01DX001 (ip), vehicle: Klucel (hydroxypropylcellulose) (HPC)); 99 % of control (dose: 200.0 mg/kg/injection, schedule: Q01DX001 (ip), vehicle: Klucel (hydroxypropylcellulose) (HPC)); 100 % of control (dose: 400.0 mg/kg/injection, schedule: Q01DX001 (ip), vehicle: Klucel (hydroxypropylcellulose) (HPC)).
Regarding `CCCCCCCC/C=C/CCCCCCCCCCCCBr`, the T/C by setting is: under setting [5], 90 % of control; (dose: 100.0 mg/kg/injection, schedule: Q04DX003 (ip), vehicle: saline) 95 % of control; under setting [6], 104 % of control; (dose: 200.0 mg/kg/injection, schedule: Q04DX003 (ip), vehicle: saline) 95 % of control; (dose: 400.0 mg/kg/injection, schedule: Q01DX009 (ip), vehicle: saline) 100 % of control; (dose: 400.0 mg/kg/injection, schedule: Q04DX003 (ip), vehicle: saline) 100 % of control.
In the case of `COC(=O)c1nc(=S)[nH]c(C(=O)OC)c1C(=O)c1ccc(Cl)c(Cl)c1`, the T/C is 89 % of control (dose: 60.0 mg/kg/injection, schedule: Q01DX005 (ip), vehicle: Klucel (hydroxypropylcellulose) (HPC)); 92 % of control under setting [7]; 95 % of control under setting [8].
Consider `CCCCCCCCC[N+]1([O-])CCOCC1`, for which the T/C was 100 % of control under setting [4], 97 % of control under setting [5] and 88 % of control under setting [6].
As for `O=C1C2=C(Nc3cc([N+](=O)[O-])ccc3N2)OC1c1ccc2c(c1)OCO2` (configuration not stated), the T/C (dose: 1.87 mg/kg/injection, schedule: Q01DX005 (ip), vehicle: Klucel (hydroxypropylcellulose) (HPC)) was 89 % of control; the T/C (dose: 3.75 mg/kg/injection, schedule: Q01DX005 (ip), vehicle: Klucel (hydroxypropylcellulose) (HPC)) is 90 % of control; the T/C (dose: 7.5 mg/kg/injection, schedule: Q01DX005 (ip), vehicle: Klucel (hydroxypropylcellulose) (HPC)) was 90 % of control; the T/C (dose: 15.0 mg/kg/injection, schedule: Q01DX005 (ip), vehicle: Klucel (hydroxypropylcellulose) (HPC)) is 88 % of control; the T/C (dose: 30.0 mg/kg/injection, schedule: Q01DX005 (ip), vehicle: Klucel (hydroxypropylcellulose) (HPC)) is 87 % of control; the T/C under setting [7] is 89 % of control and 90 % of control. Besides, the T/C under setting [8] is 93 % of control.
With `CC1(O)C2CCCCC2C2CCCCC2C1(C)O` (configuration not stated), the T/C was 101 % of control (dose: 50.0 mg/kg/injection, schedule: Q01DX005 (ip), vehicle: saline with Tween-80); 100 % of control (dose: 100.0 mg/kg/injection, schedule: Q01DX005 (ip), vehicle: saline with Tween-80); 103 % of control (dose: 200.0 mg/kg/injection, schedule: Q01DX005 (ip), vehicle: saline with Tween-80).
